Measured values from patent EP1763300B1 (priority 2004, dated 2006).
Converted amounts (≈) assume the structure as drawn.

Key:
Assay type in all cases: physicochemical
[1] = Solubilisation with polymer of Herstellungsbeispiel 1 by Verfahren 1 (solid solution), HPLC-UV; conditions: buffer with polymer, pH 6, 1440 min
[2] = Solubility in distilled water; conditions: no polymer, read-out: Löslichkeit in destilliertem Wasser
Text: Verschiedene schlecht wasserlösliche Substanzen wurden eingesetzt, um die Eignung der erfindungsgemäßen Polymere als Lösungsvermittler zu testen. Tabelle 1

[3] = Solubilisation with polymer of Herstellungsbeispiel 2 by Verfahren 1 (solid solution), HPLC-UV; conditions: buffer with polymer, pH 6, 1440 min
Description: 0,5 g eines Polymers und 0,1 g einer ausgewählten Substanz wurden in DMF (ca. 20 ml) gelöst. Das Gemisch wurde gerührt und DMF wurde vollständig evaporiert, so daß eine […] der organischen Moleküle in dem Polymer erhalten wurde. […] […] Nach der Filtration wurde die Lösung mittels HPLC analysiert (Detektor UV) und die Konzentration der Substanzen bestimmt.

Compound	Löslichkeit in Gegenwart von Polymer [1]	solubility [2] [µg/mL]	in Gegenwart von Polymer [3] [mg/L]
CCOC(=O)/C(Cl)=C/c1cc(N2C(=O)C3=C(CCCC3)C2=O)ccc1Cl [Cinidon-Ethyl]	0,5 mg/l	0.057 (≈ 0.145 µM)	57
CC1(C)CCC(Cc2ccc(Cl)cc2)C1(O)Cn1cncn1 (centres unmarked) [Metconazol]		15 (≈ 46.9 µM)	
CN1C(C(=O)Nc2ccccn2)=C(O)c2ccccc2S1(=O)=O [Piroxicam]	92 mg/L	23 (≈ 69.4 µM)	167
COC(=O)N(OC)c1ccccc1COc1ccn(-c2ccc(Cl)cc2)n1 [Pyraclostrobin]		2.4 (≈ 6.19 µM)	
CCCCC(CC)COC(=O)c1ccc(Nc2nc(Nc3ccc(C(=O)OCC(CC)CCCC)cc3)nc(Nc3ccc(C(=O)OCC(CC)CCCC)cc3)n2)cc1 (centres unmarked) [Uvinul T150®, Octyltriazon]	2,3 mg/l	0.007 (≈ 0.0085 µM)	79
